According to the NIST ThermoML archive (doi:10.1021/je300557g):

Assay: xn = mol fraction of the nth substance listed
Conditions: 101 kPa, Liquid; for mass density: Vibrating tube method

CCCC[n+]1ccccc1.F[B-](F)(F)F [1-butylpyridinium tetrafluoroborate] + CO
Conditions | kinematic viscosity, 293.15 K [m2/s] | kinematic viscosity, 303.15 K [m2/s] | kinematic viscosity, 313.15 K [m2/s] | kinematic viscosity, 323.15 K [m2/s] | mass density, 293.15 K [kg/m3] | mass density, 303.15 K [kg/m3] | mass density, 313.15 K [kg/m3] | mass density, 323.15 K [kg/m3]
x1 = 0.0478 | 1.08e-06 | 8.99e-07 | 7.44e-07 | 6.21e-07 | 878.25 | 869.29 | 860.54 | 852.41
x1 = 0.0959 | 1.55e-06 | 1.27e-06 | 1.03e-06 | 8.64e-07 | 940.74 | 931.43 | 923.47 | 916
x1 = 0.1952 | 2.79e-06 | 2.21e-06 | 1.75e-06 | 1.44e-06 | 1026.08 | 1017.92 | 1010.59 | 1003.55
x1 = 0.2938 | 4.62e-06 | 3.53e-06 | 2.73e-06 | 2.2e-06 | 1080.36 | 1072.63 | 1065.38 | 1058.43
x1 = 0.3916 | 7.4e-06 | 5.61e-06 | 4.29e-06 | 3.41e-06 | 1117.45 | 1109.94 | 1102.7 | 1095.78
x1 = 0.4921 | 1.19e-05 | 8.77e-06 | 6.56e-06 | 5.13e-06 | 1145.14 | 1137.76 | 1130.52 | 1123.61
x1 = 0.5949 | 2e-05 | 1.4e-05 | 1.03e-05 | 7.68e-06 | 1166.53 | 1159.2 | 1152.11 | 1145.11
x1 = 0.6989 | 3.26e-05 | 2.22e-05 | 1.56e-05 | 1.16e-05 | 1183.41 | 1176.16 | 1169.22 | 1162.18
x1 = 0.7972 | 5.32e-05 | 3.4e-05 | 2.31e-05 | 1.65e-05 | 1196.34 | 1189.23 | 1182.46 | 1175.36
x1 = 0.8478 | 7.2e-05 | 4.49e-05 | 2.97e-05 | 2.07e-05 | 1202.15 | 1195.1 | 1188.42 | 1181.32
x1 = 0.8978 | 9.63e-05 | 5.72e-05 | 3.68e-05 | 2.51e-05 | 1207.4 | 1200.46 | 1193.84 | 1186.75
x1 = 0.9471 | 0.00013 | 7.39e-05 | 4.61e-05 | 3.06e-05 | 1212.3 | 1205.38 | 1198.8 | 1191.71
